Source: US9434688B2, “Indole derivatives as selective androgen receptor modulators (SARMS)” (Janssen Pharmaceutica, NV, priority 2004, dated 2016)
“And” between values parts separate entries of the source, which are not always exact repeats. Equal values may be shown once.

What was measured:
androgen receptor [1] = target: T1, androgen receptor (Rattus norvegicus, UniProt P15207); assay: L929 Androgen Receptor Functional Assay, Adenovirus Transduction; format: cell-based; set-up: expressed in transfected cells; host or cells: L929 cells transduced with adenovirus AdEasy+rAR; details: concentration of 3000 nM, 3 µM
T1 sequence (P15207 1-902): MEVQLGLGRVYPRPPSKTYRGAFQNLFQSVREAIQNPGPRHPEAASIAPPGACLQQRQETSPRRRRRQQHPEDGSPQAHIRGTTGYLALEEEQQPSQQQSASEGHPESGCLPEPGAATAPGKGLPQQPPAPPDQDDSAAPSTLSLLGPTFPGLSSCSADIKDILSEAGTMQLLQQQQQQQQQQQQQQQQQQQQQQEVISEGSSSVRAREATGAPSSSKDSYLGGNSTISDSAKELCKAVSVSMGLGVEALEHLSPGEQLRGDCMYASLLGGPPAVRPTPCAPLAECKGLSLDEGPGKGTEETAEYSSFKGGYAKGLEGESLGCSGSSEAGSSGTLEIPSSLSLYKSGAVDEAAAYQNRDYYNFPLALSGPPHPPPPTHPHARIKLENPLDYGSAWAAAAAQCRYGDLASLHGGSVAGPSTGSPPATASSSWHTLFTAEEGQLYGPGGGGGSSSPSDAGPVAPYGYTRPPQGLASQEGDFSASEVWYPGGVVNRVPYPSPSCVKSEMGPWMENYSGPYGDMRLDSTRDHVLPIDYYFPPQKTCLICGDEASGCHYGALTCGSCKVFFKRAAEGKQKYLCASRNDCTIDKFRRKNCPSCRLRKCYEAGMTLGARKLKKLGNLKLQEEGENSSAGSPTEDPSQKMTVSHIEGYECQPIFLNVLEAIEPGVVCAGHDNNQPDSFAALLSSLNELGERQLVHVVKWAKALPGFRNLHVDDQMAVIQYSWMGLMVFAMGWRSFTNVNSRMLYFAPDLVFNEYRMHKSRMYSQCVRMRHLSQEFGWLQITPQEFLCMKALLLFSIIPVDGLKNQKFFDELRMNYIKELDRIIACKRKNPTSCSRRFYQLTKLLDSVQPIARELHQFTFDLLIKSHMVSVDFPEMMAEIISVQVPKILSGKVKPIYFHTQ
Procedure: L929 cells were plated in 96-well plates at 20,000 cells per well, in DMEM/F12 (GIBCO) containing 10% (v/v) charcoal-treated fetal bovine serum (Hyclone) and lacking phenol red. The plates were then incubated overnight at 37° C. in 5% (v/v) humidified CO2.
Test compound dilutions were prepared in 100% (v/v) DMSO, if necessary. Each dilution was made to 1250× the final desired assay concentration.
First, 2 mL of DMEM/F12 lacking phenol red was pipetted into the wells of a 2-mL 96-well assay block. Next, 4 μL of the 1250× test compound dilutions were pipetted into each well of the assay block. The mixtures within the well were then carefully mixed by pipette.
In a 15 mL or 50 mL sterile centrifuge tube, a 2.5 nM (2.5×) dilution of R1881 (methyl-trienolone) in DMEM/F12 lacking phenol red was prepared.
In a second 15 mL or 50 mL centrifuge tube a solution containing an equal volume of DMEM to the first and an equal volume of 100% (v/v) DMSO to the volume of R1881 used in the first tube was prepared.
In a 15 mL or 50 mL sterile centrifuge tube, a dilution in DMEM/F12 of the adenovirus AdEasy+rAR at an moi of 1:500 per well was prepared.
The medium was removed from the 96-well plates by inversion and dried, inverted, very briefly. As soon as possible after medium removal, 40 μL of the diluted unlabeled test compound was added to each well, in duplicate. To each well designated for antagonist testing was added 40 μL of the 2.5 nM R1881 dilution to the wells for antagonist testing. To each well designated for agonist testing was added 40 μL of the DMSO dilution. Then 20 μL of the diluted adenovirus were added to all wells. The plates were incubated for 48 hours at 37° C. in 5% (v/v) humidified CO2.
To each well was added 100 μL of Steady-Glo luciferase assay substrate (Promega) and the plates were placed on a rotary shaker for 1 min. The plates were then incubated at room temperature in the dark for one hour. The contents of each well were then transferred to a white microtiter plate (Packard) and read on a Luminoskan Ascent (Thermo Lab Systems).
L929 AR percent activity was determined by testing dilutions of the test compound using a concentration of 3000 nM unless otherwise noted. L929 percent inhibition was determined by testing dilutions of the test compound using a concentration of 3000 nM. […] Luciferase activity per well were measured and EC50s and IC50s determined by linear regression.

androgen receptor [2] = target: T1, androgen receptor; assay: Androgen Receptor Binding Using Rat Ventral Prostate Cytosol; set-up: from tissue; host or cells: ventral prostate cytosol of castrated male Sprague Dawley or Wistar rats; details: 3 µM

With `CCSCC(O)c1cc2cc([N+](=O)[O-])c(C(F)(F)F)cc2[nH]1` (racemic) [compound 158] the “% Activity” value (androgen receptor [1]; L929 agonist testing) was 3% and 2%, the “% Inhibition” value (androgen receptor [1]; L929 antagonist testing with R1881) was 21% and 29% and the “% Inhibition” value (androgen receptor [2]) was 52%.
